Measured values taken from ChEMBL document CHEMBL1201862, “PubChem BioAssay data set” (2004).
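Values below derive from 48-hour exposures of cells grown in 96-well plates, with endpoints linearly interpolated between the two concentrations bracketing the appropriate inhibition level. GI50 is the concentration that inhibits growth by half.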 Active and inactive are the calls of the source. Cut-off read from the data, not from the text of the source: active = GI50 up to about 1.1 µM and inactive = higher.

Key:
Experiment in all cases: growth of human tumour cells (NCI), 48 h
NCI-H460 = system: NCI-H460
CAKI-1 = system: CAKI-1
NCI-H23 = system: NCI-H23
NCI-H226 = system: NCI-H226
CCRF-CEM = system: CCRF-CEM
HCT-116 = system: HCT-116
SW-620 = system: SW-620
IGROV-1 = system: IGROV-1
MOLT-4 = system: MOLT-4
K562 = system: K562
HT-29 = system: HT-29
HCT-15 = system: HCT-15
M14 = system: M14
UACC-62 = system: UACC-62
KM-20L2 = system: KM-20L2
HCC 2998 = system: HCC 2998
UO-31 = system: UO-31
BT-549 = system: BT-549
SK-MEL-2 = system: SK-MEL-2

Question: What does the source list for `COC(=O)[C@]1(C)CCCC2(C)C1CC[C@H]1C=C(C)[C@H]3CCC12C3` (stereo partly specified)?
Answer: GI50 (NCI-H460): 44.5 µM (inactive); GI50 (CAKI-1): > 100 µM (inactive); GI50 (NCI-H23): > 100 µM (inactive); GI50 (NCI-H226): > 100 µM (inactive); GI50 (CCRF-CEM): > 100 µM (inactive); GI50 (HCT-116): 40.3 µM (inactive); GI50 (SW-620): > 100 µM (inactive); GI50 (IGROV-1): > 100 µM (inactive); GI50 (MOLT-4): > 100 µM (inactive); GI50 (K562): > 100 µM (inactive); GI50 (HT-29): 49.9 µM (inactive); GI50 (HCT-15): > 100 µM; GI50 (M14): > 100 µM (inactive); GI50 (UACC-62): > 100 µM (inactive); GI50 (KM-20L2): > 100 µM (inactive); GI50 (HCC 2998): > 100 µM (inactive); GI50 (UO-31): > 100 µM (inactive)

Question: What does the source list for `N#Cc1c2c(c(N)oc1=O)C(c1ccccc1)CC(=O)N2` (stereo unspecified)?
Answer: GI50 (NCI-H460): > 100 µM (inactive); GI50 (CAKI-1): > 100 µM (inactive); GI50 (NCI-H23): > 100 µM (inactive); GI50 (NCI-H226): > 100 µM (inactive); GI50 (CCRF-CEM): > 100 µM (inactive); GI50 (HCT-116): > 100 µM (inactive); GI50 (SW-620): > 100 µM (inactive); GI50 (IGROV-1): > 100 µM (inactive); GI50 (MOLT-4): > 100 µM (inactive); GI50 (BT-549): > 100 µM (inactive); GI50 (K562): > 100 µM (inactive); GI50 (SK-MEL-2): > 100 µM (inactive); GI50 (HT-29): > 100 µM (inactive); GI50 (HCT-15): > 100 µM; GI50 (M14): > 100 µM (inactive); GI50 (UACC-62): > 100 µM (inactive); GI50 (HCC 2998): > 100 µM (inactive); GI50 (UO-31): > 100 µM (inactive)

Question: How did the GI50 (NCI-H460) turn out when `CC1=NN(C(=O)c2ccc(Cl)cc2)C(=O)/C1=C/c1cccc([N+](=O)[O-])c1` was run?
Answer: The GI50 was > 100 µM (inactive).

Question: And the GI50 (CAKI-1)?
Answer: The GI50 was > 100 µM (inactive).

Question: And the GI50 (NCI-H23)?
Answer: The GI50 was > 100 µM (inactive).

Question: And the GI50 (CCRF-CEM)?
Answer: The GI50 was > 100 µM (inactive).

Question: And the GI50 (HCT-116)?
Answer: The GI50 was > 100 µM (inactive).

Question: What about the GI50 (SW-620) of the same compound?
Answer: Its GI50 is > 100 µM (inactive).

Question: And the GI50 (IGROV-1)?
Answer: The GI50 was > 100 µM (inactive).

Question: What about the GI50 (K562) of the same compound?
Answer: The GI50 was > 100 µM (inactive).

Question: And the GI50 (SK-MEL-2)?
Answer: The GI50 was > 100 µM (inactive).

Question: What about the GI50 (HT-29) of the same compound?
Answer: The GI50 was > 100 µM (inactive).

Question: What about the GI50 (HCT-15) of the same compound?
Answer: The GI50 was greater than 100 µM.

Question: And the GI50 (M14)?
Answer: Its GI50 is > 100 µM (inactive).

Question: What about the GI50 (UACC-62) of the same compound?
Answer: The GI50 was > 100 µM (inactive).

Question: What about the GI50 (KM-20L2) of the same compound?
Answer: Its GI50 is > 100 µM (inactive).

Question: And the GI50 (HCC 2998)?
Answer: Its GI50 is > 100 µM (inactive).

Question: And the GI50 (UO-31)?
Answer: Its GI50 is > 100 µM (inactive).

Question: What does the source list for `CC1=CC(=O)N(n2c(C)n[nH]c2=O)C1=O`?
Answer: GI50 (NCI-H460): > 100 µM (inactive); GI50 (CAKI-1): > 100 µM (inactive); GI50 (NCI-H23): > 100 µM (inactive); GI50 (NCI-H226): > 100 µM (inactive); GI50 (CCRF-CEM): > 100 µM (inactive); GI50 (HCT-116): > 100 µM (inactive); GI50 (SW-620): > 100 µM (inactive); GI50 (IGROV-1): > 100 µM (inactive); GI50 (MOLT-4): > 100 µM (inactive); GI50 (BT-549): > 100 µM (inactive); GI50 (K562): > 100 µM (inactive); GI50 (SK-MEL-2): > 100 µM (inactive); GI50 (HT-29): > 100 µM (inactive); GI50 (HCT-15): > 100 µM; GI50 (M14): > 100 µM (inactive); GI50 (UACC-62): > 100 µM (inactive); GI50 (HCC 2998): > 100 µM (inactive); GI50 (UO-31): > 100 µM (inactive)

Question: Which results are given for `CCOC(=O)c1c(N2CCOCC2)[nH]c(=O)c(C(c2c(Cl)cccc2Cl)c2c(O)c(C(=O)OCC)c(N3CCOCC3)[nH]c2=O)c1O`?
Answer: GI50 (NCI-H460): 21.4 µM (inactive); GI50 (CAKI-1): 2.31 µM (inactive); GI50 (NCI-H23): 7.19 µM (inactive); GI50 (NCI-H226): 13.8 µM (inactive); GI50 (CCRF-CEM): 1.64 µM (inactive); GI50 (HCT-116): 4.39 µM (inactive); GI50 (SW-620): 1.7 µM (inactive); GI50 (IGROV-1): 4.09 µM (inactive); GI50 (MOLT-4): 2.07 µM (inactive); GI50 (BT-549): 7.76 µM (inactive); GI50 (K562): 2.3 µM (inactive); GI50 (SK-MEL-2): 4.74 µM (inactive); GI50 (HT-29): 3.56 µM (inactive); GI50 (HCT-15): 4.63 µM; GI50 (M14): 2.4 µM (inactive); GI50 (UACC-62): 6.9 µM (inactive); GI50 (HCC 2998): 19.4 µM (inactive); GI50 (UO-31): 2.47 µM (inactive)

Question: Which GI50 (NCI-H460) does the source give for `O=[N+]([O-])c1cccc2nccc(NCCCO)c12` here?
Answer: The GI50 was 11 µM (inactive).

Question: What about the GI50 (CAKI-1) of the same compound?
Answer: The GI50 was 13.8 µM (inactive).

Question: What about the GI50 (NCI-H23) of the same compound?
Answer: The GI50 was 12.5 µM (inactive).

Question: And the GI50 (NCI-H226)?
Answer: Its GI50 is 23 µM (inactive).

Question: And the GI50 (CCRF-CEM)?
Answer: The GI50 was 14.7 µM (inactive).

Question: And the GI50 (HCT-116)?
Answer: Its GI50 is 13 µM (inactive).

Question: What about the GI50 (SW-620) of the same compound?
Answer: The GI50 was 13.3 µM (inactive).

Question: What about the GI50 (IGROV-1) of the same compound?
Answer: Its GI50 is 13.3 µM (inactive).

Question: What about the GI50 (MOLT-4) of the same compound?
Answer: Its GI50 is 13.9 µM (inactive).

Question: What about the GI50 (BT-549) of the same compound?
Answer: The GI50 was 8.93 µM (inactive).

Question: What about the GI50 (K562) of the same compound?
Answer: Its GI50 is 13.2 µM (inactive).

Question: What about the GI50 (SK-MEL-2) of the same compound?
Answer: The GI50 was 4.38 µM (inactive).

Question: And the GI50 (HT-29)?
Answer: The GI50 was 6.89 µM (inactive).

Question: And the GI50 (HCT-15)?
Answer: Its GI50 is 8.11 µM.

Question: And the GI50 (M14)?
Answer: Its GI50 is 12.9 µM (inactive).

Question: What about the GI50 (UACC-62) of the same compound?
Answer: Its GI50 is 8.57 µM (inactive).

Question: What about the GI50 (HCC 2998) of the same compound?
Answer: Its GI50 is 13.2 µM (inactive).

Question: And the GI50 (UO-31)?
Answer: The GI50 was 16 µM (inactive).

Question: Which GI50 (NCI-H460) does the source give for `COc1cc(/C=C2\CCC(C)C3=C(c4cc(OC)c(OC)c(OC)c4)C(C#N)=C(N)OC32)cc(OC)c1OC` (stereo unspecified) here?
Answer: The GI50 was 3.57 µM (inactive).

Question: And the GI50 (CAKI-1)?
Answer: Its GI50 is 4.73 µM (inactive).

Question: And the GI50 (NCI-H23)?
Answer: Its GI50 is 3.72 µM (inactive).

Question: What about the GI50 (NCI-H226) of the same compound?
Answer: Its GI50 is 2.98 µM (inactive).

Question: And the GI50 (CCRF-CEM)?
Answer: The GI50 was 2.05 µM (inactive).

Question: What about the GI50 (HCT-116) of the same compound?
Answer: The GI50 was 2.2 µM (inactive).

Question: And the GI50 (SW-620)?
Answer: The GI50 was 3.97 µM (inactive).

Question: And the GI50 (IGROV-1)?
Answer: The GI50 was 4.94 µM (inactive).

Question: And the GI50 (MOLT-4)?
Answer: Its GI50 is 1.84 µM (inactive).

Question: What about the GI50 (BT-549) of the same compound?
Answer: The GI50 was 5.97 µM (inactive).

Question: What about the GI50 (K562) of the same compound?
Answer: Its GI50 is 2.85 µM (inactive).

Question: What about the GI50 (SK-MEL-2) of the same compound?
Answer: Its GI50 is 2.09 µM (inactive).

Question: And the GI50 (HT-29)?
Answer: The GI50 was 2 µM (inactive).

Question: What about the GI50 (HCT-15) of the same compound?
Answer: Its GI50 is 2.08 µM.

Question: And the GI50 (M14)?
Answer: Its GI50 is 2.23 µM (inactive).

Question: And the GI50 (UACC-62)?
Answer: The GI50 was 2.45 µM (inactive).

Question: And the GI50 (HCC 2998)?
Answer: The GI50 was 4.16 µM (inactive).

Question: And the GI50 (UO-31)?
Answer: The GI50 was 3.92 µM (inactive).

Question: What does the source list for `O=Cc1c2ccccc2n2ccc3c4ccccc4[nH]c3c12`?
Answer: GI50 (NCI-H460): > 10 µM (inactive); GI50 (CAKI-1): > 10 µM (inactive); GI50 (NCI-H23): > 10 µM (inactive); GI50 (NCI-H226): > 10 µM (inactive); GI50 (CCRF-CEM): > 10 µM (inactive); GI50 (HCT-116): > 10 µM (inactive); GI50 (SW-620): > 10 µM (inactive); GI50 (IGROV-1): > 10 µM (inactive); GI50 (MOLT-4): > 10 µM (inactive); GI50 (BT-549): > 10 µM (inactive); GI50 (K562): > 10 µM (inactive); GI50 (SK-MEL-2): > 10 µM (inactive); GI50 (HT-29): > 10 µM (inactive); GI50 (HCT-15): > 10 µM; GI50 (M14): > 10 µM (inactive); GI50 (UACC-62): > 10 µM (inactive); GI50 (HCC 2998): > 10 µM (inactive); GI50 (UO-31): > 10 µM (inactive)
